In the experiment the test system is EA.hy926 cells. Briefly: Protective effect against H2O2-induced oxidative damage, MTT assay. The class given is cell-based, human. The following applies: for EC50: protection against H2O2-induced damage (400 µmol·L^−1, 4 h), n = 3, mean ± SD. Here is the method: Hydrogen peroxide (H2O2), a small molecule and functions as oxidative stress and a second messenger which contributes to cell damage or death, could directly induce inflammation in several cell lines. H2O2-induced cell damage is a commonly used model for antioxidant activity evaluation. […] Thus, the concentration of 400 µmol·L^−1 at 4 h was chosen as the model.
Compound SC2 stock solutions were prepared in DMSO. The stock solutions were diluted with FBS free DMEM to different target concentrations (DMSO concentrations ≤ 0.5% v:v). Cells (100 μL, 2 × 10^5 cells∙mL^−1) were seeded on 96-well plates and cultured for 24 h. The medium was then replaced with fresh media containing H2O2 with different concentrations (0, 100, 200, 300, 400, 500, and 600 μmol·L^−1 in FBS free DMEM) and compound SC2 (50, 40, 30, 20, 10 µmol·L^−1), which were transferred to the incubator and cultured for additional time (2, 4, and 6 h). The medium was then replaced with 100 μL of FBS free DMEM and MTT (10 μL, 5 mg·mL^−1 in PBS) and after 4 h the medium was replaced with DMSO (100 μL). A microplate reader (SpectraMaxPlus384, Molecular Devices, United States) was used to record the absorbance at 490 nm for each well of the plates. Cell viability was measured via MTT assay. Survival rate (%) = (Asample group/Acontrol group) × 100%.
Cells (100 μL, 2 × 10^5 cells·mL^−1) were seeded in 96-well plates for 24 h. Cells were treated with different groups and cell viability was measured via MTT assay. The protection rates to oxidative damage were determined and EC50 values were calculated. The protection rates to cells were calculated using the following formula: Protection rate (%) = (Apretreatment group − Amodel group)/(Acontrol group − Amodel group) × 100%.

In general, EC50 refers to the midpoint of the concentration-response curve. Read a low EC50 as greater potency. Turning to `CCCCc1ccc(C(=O)c2c(Br)cc(O)c(O)c2O)cc1` [DB2], the half-maximal effective concentration (EC50) (Homo sapiens, EA.hy 926, 4 h) stood at 1.36 ± 0.463 µM.
Turning to `CC(C)(C)c1ccc(C(=O)c2c(Cl)cc(O)c(O)c2O)cc1` [SC2], the EC50 amounted to 0.00625 ± 0.000415 µM. Moreover, the “protection from H2O2 induced cell damage” value (5 µmol·L^−1 compound, four pre-chosen H2O2 treatments) was “protects the cells from H2O2 induced cell damage”. Where the note is “Homo sapiens, EA.hy 926, 4 h”, this compound returned a concentration giving a half-maximal response (EC50) of 0.00625 ± 0.000415 µM.
The compound `CC(C)Cc1ccc(C(=O)c2c(Br)cc(O)c(O)c2O)cc1` [YB2] had an EC50 (Homo sapiens, EA.hy 926, 4 h) of 0.417 ± 0.0246 µM. Also, the “protection rate compared with positive controls (fenofibrate and quereetin)” value (statistical comparison) is “no significant difference”.

Source of the values: publication PMC8587043, “An Investigation into the Interaction between Double Hydroxide-Based Antioxidant Benzophenone Derivatives and Cyclooxygenase 2” (Molecules, 2021).
